Measurements taken from US7691844B2, “Nonpeptide substituted spirobenzoazepines as vasopressin antagonists” (Ortho-McNeil Pharmaceutical, Inc., priority 2000, dated 2010).

Key:
[1] = target: V1a (Homo sapiens, UniProt P37288); assay: In-vitro receptor binding assay (3H-arginine-8-vasopressin), V1a
Method: (§1) (A) In-Vitro Binding Assay […] The reaction plates are allowed to sit at room temperature for one hour. The samples are filtered through Unifilter GF/C plates (presoaked in 0.3 polyethyleneimine). The plates are washed 5 times with cold physiological saline containing 0.05% Tween 20. After drying, the bottom of the filter plates are sealed and 0.025 ml of Microscint-20 is added to each filter. The top of the plate is sealed, and the plate is counted. Non-specific binding is determined by the addition of 1.25 μM […]-vasopressin in those wells. % Inh. is calculated as follows: […]

[2] = target: human V2 receptor (Homo sapiens, UniProt P30518); assay: In-vitro receptor binding assay (3H-arginine-8-vasopressin), V2
human V2 receptor, sequence (P30518 whole entry): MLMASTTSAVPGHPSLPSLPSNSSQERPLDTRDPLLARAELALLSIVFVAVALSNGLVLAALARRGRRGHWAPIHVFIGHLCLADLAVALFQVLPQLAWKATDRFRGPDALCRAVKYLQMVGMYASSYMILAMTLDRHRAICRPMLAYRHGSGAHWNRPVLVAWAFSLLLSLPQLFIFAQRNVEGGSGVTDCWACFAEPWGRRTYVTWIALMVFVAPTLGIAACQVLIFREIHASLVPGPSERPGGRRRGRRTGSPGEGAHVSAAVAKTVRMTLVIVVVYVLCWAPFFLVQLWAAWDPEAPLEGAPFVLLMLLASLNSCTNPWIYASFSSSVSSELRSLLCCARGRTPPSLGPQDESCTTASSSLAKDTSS
Method: as §1

[3] = @ 0.1 μM, read-out: Receptor Binding V1a (% Inh. @ concentration in μM)
[4] = @ 0.1 μM, read-out: Receptor Binding V2 (% Inh. @ concentration in μM)
[5] = @ 1 μM, read-out: Receptor Binding V2 (% Inh. @ concentration in μM)
[6] = @ 10 μM, read-out: Receptor Binding V2 (% Inh. @ concentration in μM)
[7] = read-out: Receptor Binding V1a (% Inh. @ concentration in μM)

V1a, sequence (P37288 whole entry): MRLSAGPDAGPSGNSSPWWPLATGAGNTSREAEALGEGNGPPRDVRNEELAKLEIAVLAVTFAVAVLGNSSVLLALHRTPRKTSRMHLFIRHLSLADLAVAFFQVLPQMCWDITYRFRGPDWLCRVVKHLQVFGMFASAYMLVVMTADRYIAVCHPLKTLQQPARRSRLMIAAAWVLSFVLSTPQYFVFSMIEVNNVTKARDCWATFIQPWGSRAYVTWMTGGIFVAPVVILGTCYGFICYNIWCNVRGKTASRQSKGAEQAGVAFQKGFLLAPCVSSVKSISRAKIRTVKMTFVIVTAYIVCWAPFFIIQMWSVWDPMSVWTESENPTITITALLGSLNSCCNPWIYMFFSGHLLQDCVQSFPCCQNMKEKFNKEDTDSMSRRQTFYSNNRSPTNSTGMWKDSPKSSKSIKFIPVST

## CN(C)CCNC(=O)C1=CC2(CC1)CCN(C(=O)c1ccc(-n3ccc(C=O)c3)cc1)c1ccccc1C2 (stereo not shown) [Compound 201]
[1]; [3]
  inhibition at 0.1 µM: 44%
[2]; [4]
  inhibition at 0.1 µM: 0%

## COc1cc(C(=O)N2CCC3(C=CCCC3)Cc3ccccc32)ccc1-n1ccc(CO)c1 (stereo not shown) [Compound 178, 4-[3-Methoxy-4-(3-hydroxymethylpyrrol-1-yl)benzoyl]-4-aza-[6,5]-spiro-[5,6]benzododec-2′-ene]
[1]
  IC50: 0.013 µM
[2]; [5]
  inhibition at 1 µM: 53%

## CCOC(=O)Oc1c(OC)cc(C(=O)N2CCC3(C=C(C(=O)OC)CC3)Cc3ccccc32)cc1OC (stereo not shown) [Compound 204]
[1]; [3]
  inhibition at 0.1 µM: 0%

## O=C(c1ccc(OC(F)(F)F)cc1)N1CCC2(C=CCCC2)Cc2ccccc21 (stereo not shown) [Compound 77]
[1]
  IC50: 0.9 µM
[2]; [5]
  inhibition at 1 µM: 16%

## Cc1ccc(F)cc1C(=O)Nc1ccc(C(=O)N2CCC3(C=C(C(=O)NCCN4CCCC4)CC3)Cc3ccccc32)cc1 (stereo not shown) [Compound 161]
[1]
  IC50: 0.01 µM
[2]
  IC50: 0.072 µM

## COC(=O)C1=CC2(CC1)CCN(C(=O)c1ccc(-n3ccc(C(C)=O)c3)c(OC)c1)c1ccccc1C2 (stereo not shown) [Compound 215]
[1]; [3]
  inhibition at 0.1 µM: 64%

## Cc1ccc(-c2ccccc2C(=O)Nc2ccc(C(=O)N3CCC4(C=CCCC4)Cc4ccccc43)c(Cl)c2)cc1 (stereo not shown) [Compound 117]
[1]; @ 0.1 μM
  Receptor Binding V1a (% Inh. @ concentration in μM): 30% @ 0.1
[2]
  IC50: 0.1 µM

## O=C(c1ccccc1)N1CCC2(C=CCCC2)Cc2ccccc21 (stereo not shown) [Compound 34]
[1]
  IC50: 0.65 µM

## Cc1ccc(F)cc1C(=O)Nc1ccc(C(=O)C2Cc3ccccc3CC3(C=CCCC3)C2)cc1 (stereo not shown) [Compound 131]
[1]
  IC50: 0.1 µM
[2]; @ 0.1 μM
  Receptor Binding V2 (% Inh. @ concentration in μM): 3% @ 0.1

## CN(C)CCNC(=O)C1=C[C@@]2(CC1)CCN(C(=O)c1ccc(N)cc1)c1ccccc1C2 [Compound 192]
[1]
  IC50: 5.4 µM
[2]; [5]
  inhibition at 1 µM: 0%

## COC(=O)CNC(=O)C1=CC2(CC1)CCN(C(=O)c1ccc(NC(=O)c3ccccc3-c3ccccc3)cc1)c1ccccc1C2 (stereo not shown) [Compound 12]
[1]
  IC50: 0.013 µM
[2]
  IC50: 0.018 µM

## O=C(c1ccc([N+](=O)[O-])cc1)N1CCC2(C=CCCC2)Cc2ccccc21 (stereo not shown) [Compound 49, 4-(4-Nitrobenzoyl)-4-aza-[6,5]-spiro-[5,6]-benzododec-2′-ene]
[1]
  IC50: 0.38 µM
[2]; [6]
  inhibition at 10 µM: 30%

## Cc1ccc(F)cc1C(=O)Nc1ccc(C(=O)N2CCC3(C=C(CO)CC3)Cc3ccccc32)c(Cl)c1 (stereo not shown) [Compound 137]
[1]; [3]
  inhibition at 0.1 µM: 53%
[2]; [4]
  inhibition at 0.1 µM: 66%

## COc1cc(-n2ccc(CO)c2)ccc1C(=O)N1CCC2(C=C(C(=O)NCCN(C)C)CC2)Cc2ccccc21 (stereo not shown) [Compound 196]
[1]
  IC50: 0.034 µM
[2]; [5]
  inhibition at 1 µM: 34%

## CN(C)CCNC(=O)C1=CC2(CC1)CCN(C(=O)c1ccc(NC(=O)c3cc(F)ccc3F)cc1)c1ccccc1C2 (stereo not shown) [Compound 220]
[1]
  IC50: 0.013 µM

## COc1cc(NC(=O)c2cc(F)ccc2C)ccc1C(=O)N1CCC2(C=C(C(=O)O)CC2)Cc2ccccc21 (stereo not shown) [Compound 175]
[1]; [3]
  inhibition at 0.1 µM: 15%
[2]
  IC50: 0.11 µM

## Nc1ccc(C(=O)N2CCC3(CCCCC3)Cc3ccccc32)cc1 [Compound 25]
[1]
  IC50: 10 µM
[2]; [6]
  inhibition at 10 µM: 7%

## CN(C)CCCNC(=O)C1=CC2(CC1)CCN(C(=O)c1ccc(NC(=O)c3cc(F)ccc3F)cc1)c1ccccc1C2 (stereo not shown) [Compound 221]
[1]
  IC50: 0.009 µM

## Cc1ccc(F)cc1C(=O)Nc1ccc(C(=O)N2CCC3(C=C(C(=O)NCCCN4CCCC4)CC3)Cc3ccccc32)cc1 (stereo not shown) [Compound 157]
[1]
  IC50: 0.016 µM
[2]
  IC50: 0.038 µM

## O=C(c1ccc(I)cc1)N1CCC2(C=CCCC2)Cc2ccccc21 (stereo not shown) [Compound 40]
[1]
  IC50: 0.57 µM
[2]; @ 10 μM
  Receptor Binding V2 (% Inh. @ concentration in μM): 27% @ 10

## Cc1ccc(F)cc1C(=O)Nc1ccc(C(=O)N2CCC3(C=C(C(=O)NCCCN4CCOCC4)CC3)Cc3ccccc32)cc1 (stereo not shown) [Compound 158]
[1]
  IC50: 0.016 µM
[2]
  IC50: 0.039 µM

## CC(C)Nc1ccc(C(=O)N2CCC3(C=CCCC3)Cc3ccccc32)cc1 (stereo not shown) [Compound 79]
[1]
  IC50: 0.19 µM
[2]; [5]
  inhibition at 1 µM: 19%

## Cc1ccn(-c2ccc(C(=O)N3CCC4(C=C(C(=O)N5CCN(C)CC5)CC4)Cc4ccccc43)cc2)n1 (stereo not shown) [Compound 217]
[1]; [3]
  inhibition at 0.1 µM: 42%

## O=C(Nc1ccc(C(=O)N2CCC3(CCCCC3O)Cc3ccccc32)cc1)c1ccccc1-c1ccccc1 (stereo not shown) [Compound 32]
[1]
  IC50: 0.061 µM
[2]
  IC50: 0.028 µM

## O=C(c1ccccc1-c1ccccc1)N1CCC2(C=CCCC2)Cc2ccccc21 (stereo not shown) [Compound 64]
[1]; @ 1 μM
  Receptor Binding V1a (% Inh. @ concentration in μM): 1% @ 1
[2]; @ 1 μM
  Receptor Binding V2 (% Inh. @ concentration in μM): 12% @ 1

## COC(=O)C1=CC2(CC1)CCN(C(=O)c1ccc(-n3ccc(C)n3)c(N(C)C)c1)c1ccccc1C2 (stereo not shown) [Compound 213]
[1]; [7]
  inhibition at 0.125 µM: 63%
[2]; [5]
  inhibition at 1 µM: 55%

## Cc1cccc(C(=O)Nc2ccc(C(=O)N3CCC4(C=CCCC4)Cc4ccccc43)cc2)c1 (stereo not shown) [Compound 85]
[1]
  IC50: 0.05 µM
[2]
  IC50: 0.38 µM

## COc1ccccc1C(=O)Nc1ccc(C(=O)N2CCC3(C=CCCC3)Cc3ccccc32)cc1 (stereo not shown) [Compound 71]
[1]
  IC50: 0.03 µM
[2]
  IC50: 0.2 µM

## COC(=O)CN1CCC(Oc2ccc(C(=O)N3CCC4(C=CCCC4)Cc4ccccc43)cc2F)CC1 (stereo not shown) [Compound 169]
[1]; [3]
  inhibition at 0.1 µM: 4%
[2]; [5]
  inhibition at 1 µM: 0%

## C[S+]([O-])c1ccc(C(=O)Nc2ccc(C(=O)N3CCC4(C=CCCC4)Cc4ccccc43)cc2)cc1 (stereo not shown) [Compound 95]
[1]; @ 1 μM
  Receptor Binding V1a (% Inh. @ concentration in μM): 27% @ 1
[2]; @ 1 μM
  Receptor Binding V2 (% Inh. @ concentration in μM): 0% @ 1

## Cc1ccc(F)cc1C(=O)Nc1ccc(C(=O)N2CCC3(C=C(C=O)CC3)Cc3ccccc32)c(Cl)c1 (stereo not shown) [Compound 138]
[1]; [3]
  inhibition at 0.1 µM: 35%
[2]; [4]
  inhibition at 0.1 µM: 57%

## O=C(c1ccc(OCC2CC2)cc1)N1CCC2(C=CCCC2)Cc2ccccc21 (stereo not shown) [Compound 181]
[1]
  IC50: 0.066 µM
[2]; [5]
  inhibition at 1 µM: 31%

## CC(=O)Oc1ccc(C(=O)N2CCC3(C=CCCC3)Cc3ccccc32)cc1 (stereo not shown) [Compound 172]
[1]; [3]
  inhibition at 0.1 µM: 15%
[2]; [5]
  inhibition at 1 µM: 0%

## Cc1ccc(-c2ccccc2C(=O)Nc2ccc(C(=O)N3CCC4(C=CCCC4)Cc4ccccc43)cc2)cc1 (stereo not shown) [Compound 114]
[1]
  IC50: 0.09 µM
[2]
  IC50: 0.095 µM

## Cc1ccc(F)cc1C(=O)Nc1ccc(C(=O)N2CCC3(C=C(C(=O)NCCO)CC3)Cc3ccccc32)cc1 (stereo not shown) [Compound 159]
[1]
  IC50: 0.011 µM
[2]
  IC50: 0.047 µM

## CN(C)CCNC(=O)C1=CC2(CC1)CCN(C(=O)c1ccc(N)cc1)c1ccccc1C2 (stereo not shown) [Compound 193]
[1]
  IC50: 1.1 µM
[2]; @ 1 μM
  Receptor Binding V2 (% Inh. @ concentration in μM): 0% @ 1

## COC(=O)C1=CC2(CC1)CCN(C(=O)c1ccc(-n3ccc(C)n3)c(N)c1)c1ccccc1C2 (stereo not shown) [Compound 211]
[1]; [7]
  inhibition at 0.125 µM: 55%
[2]; [5]
  inhibition at 1 µM: 45%

## COc1ccc(C(=O)N2CCC3(C=CCCC3)Cc3ccccc32)c(OC)c1 (stereo not shown) [Compound 74]
[1]
  IC50: 0.19 µM
[2]; @ 1 μM
  Receptor Binding V2 (% Inh. @ concentration in μM): 27% @ 1

## COc1cc(-n2ccc(C=O)c2)ccc1C(=O)N1CCC2(C=CCCC2)Cc2ccccc21 (stereo not shown) [Compound 166]
[1]
  IC50: 0.114 µM
[2]; @ 0.225 μM, read-out: Receptor Binding V2 (% Inh. @ concentration in μM)
  inhibition at 0.225 µM: 5%

## O=C(c1cccc(Cl)c1)N1CCC2(C=CCCC2)Cc2ccccc21 (stereo not shown) [Compound 46]
[1]
  IC50: 3.5 µM
[2]; [6]
  inhibition at 10 µM: 33%

## O=C(c1ccc(C(F)(F)F)cc1)N1CCC2(C=CCCC2)Cc2ccccc21 (stereo not shown) [Compound 38]
[1]
  IC50: 1.6 µM
[2]; @ 10 μM
  Receptor Binding V2 (% Inh. @ concentration in μM): 35% @ 10

## O=C(c1ccc(-n2cccn2)c(-n2cccn2)c1)N1CCC2(C=CCCC2)Cc2ccccc21 (stereo not shown) [Compound 155]
[1]
  IC50: 0.13 µM
[2]; [5]
  inhibition at 1 µM: 2%

## O=C(c1cc(C(F)(F)F)cc(C(F)(F)F)c1)N1CCC2(C=CCCC2)Cc2ccccc21 (stereo not shown) [Compound 50]
[1]; @ 10 μM
  Receptor Binding V1a (% Inh. @ concentration in μM): 20% @ 10
[2]; @ 10 μM
  Receptor Binding V2 (% Inh. @ concentration in μM): 26% @ 10

## O=C(O)C1=CC2(CC1)CCN(C(=O)c1ccc(NC(=O)c3ccccc3F)cc1)c1ccccc1C2 (stereo not shown) [Compound 7, 4-(2-Fluorobenzoyl-4-aminobenzoyl)-3′-(carboxyl)-4-aza-[6,4]-spiro-[5,6]-benzoundec-2′-ene]
[1]; @ 0.1 μM
  Receptor Binding V1a (% Inh. @ concentration in μM): 43% @ 0.1
[2]; @ 0.1 μM
  Receptor Binding V2 (% Inh. @ concentration in μM): 15% @ 0.1

## CCCCOc1ccc(C(=O)N2CCC3(C=C(C(=O)OC)CC3)Cc3ccccc32)cc1 (stereo not shown) [Compound 205]
[1]
  IC50: 0.14 µM

## CCOC(=O)Oc1c(OC)cc(C(=O)N2CCC3(C=CCCC3)Cc3ccccc32)cc1OC (stereo not shown) [Compound 206, 4-(4-Ethoxycarboyloxy-3,5-dimethoxybenzoyl)-4-aza-[6,5]-spiro-[5,6]-benzododec-2′-ene]
[1]; [3]
  inhibition at 0.1 µM: 9%

## O=C(c1ccc(F)cc1)N1CCC2(C=CCCC2)Cc2ccccc21 (stereo not shown) [Compound 44]
[2]; @ 10 μM
  Receptor Binding V2 (% Inh. @ concentration in μM): 42% @ 10

## O=C(O)C1=CC2(CC1)CCN(C(=O)c1ccc(NC(=O)c3cc(F)ccc3F)cc1)c1ccccc1C2 (stereo not shown) [Compound 219]
[1]; @ 0.2 μM, read-out: Receptor Binding V1a (% Inh. @ concentration in μM)
  inhibition at 0.2 µM: 48%

## COC(=O)C1=CC2(CC1)CCN(C(=O)c1cc(OC)c(OC)c(OC)c1)c1ccccc1C2 (stereo not shown) [Compound 203]
[1]; [3]
  inhibition at 0.1 µM: 3%

## Cc1ccn(-c2ccc(C(=O)N3CCC4(C=C(C(=O)N5CCN(C)CC5)CC4)Cc4ccccc43)cc2N(C)C)n1 (stereo not shown) [Compound 214]
[1]; [3]
  inhibition at 0.1 µM: 48%

## COc1ccc(C(=O)Nc2ccc(C(=O)N3CCC4(C=CCCC4)Cc4ccccc43)cc2)cc1OC (stereo not shown) [Compound 97]
[2]; @ 1 μM
  Receptor Binding V2 (% Inh. @ concentration in μM): 2% @ 1

## COc1cc(C(=O)N2CCC3(C=C(C(=O)N4CCN(C)CC4)CC3)Cc3ccccc32)ccc1-n1ccc(C(C)=O)c1 (stereo not shown) [Compound 216]
[1]; [3]
  inhibition at 0.1 µM: 6%

## COc1cc(-n2ccc(C(=O)O)c2)ccc1C(=O)N1CCC2(C=C(C(=O)NCCN(C)C)CC2)Cc2ccccc21 (stereo not shown) [Compound 200]
[1]; [3]
  inhibition at 0.1 µM: 0%
